Like-named read-outs stand apart in the source and are kept apart here.
Experiments:
[1] = biological target: T1, Gal4‐NOR‐1 (human NOR‐1 LBD) (Homo sapiens, UniProt Q92570); experiment: Gal4 hybrid reporter gene assay for NOR‐1 activity in HEK293T cells; format: cell-based; details: for type of NOR‐1 modulation: Gal4‐NOR‐1; for NOR‐1 activity / activity on NOR‐1: Gal4‐NOR‐1, 100 μM; for IC50: read-out: IC50 (NOR‐1), inverse agonism; for remaining NOR‐1 activity: Gal4‐NOR‐1, remaining activity at maximum inverse agonist effect
T1 construct: coding for the hinge region and LBD of the canonical isoform of NOR‐1; expressed in transfected cells; host or cells: HEK293T
T1 sequence (Q92570 394-623 limits assumed): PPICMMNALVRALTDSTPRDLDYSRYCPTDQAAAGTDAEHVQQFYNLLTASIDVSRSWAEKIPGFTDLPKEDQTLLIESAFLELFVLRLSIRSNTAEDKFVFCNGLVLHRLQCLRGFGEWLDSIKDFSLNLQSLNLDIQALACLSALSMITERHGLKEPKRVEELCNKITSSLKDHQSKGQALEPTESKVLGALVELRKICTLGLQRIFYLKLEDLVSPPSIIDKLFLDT
Method: The screening assay was based on the Gal4 hybrid system[13] and employed a chimeric receptor composed of the human NOR‐1 LBD and the Gal4 DNA binding domain from yeast. Firefly luciferase under the control of five tandem repeats of the Gal4 response element served as reporter gene and constitutively expressed renilla luciferase was used for normalization and toxicity monitoring. Control experiments were conducted with the ligand‐independent transcriptional inducer Gal4‐VP16[14, 15] (replacing Gal4‐NOR‐1) to exclude non‐specific effects.
Hybrid reporter gene assays. The reporter gene assay was performed as reported previously[25] in HEK293T cells in 96‐well format using pFR‐Luc (Stratagene, La Jolla, CA, USA; reporter), pRL‐SV40 (Promega, Madison, WI, USA; control) and the Gal4‐NOR‐1 fusion receptor plasmid pFA‐CMV‐hNOR‐1‐LBD coding for the hinge region and LBD of the canonical isoform of NOR‐1 or pECE‐SV40‐Gal4‐VP16[15] […] In the primary screening, the core set of the Prestwick Drug Fragments Library was tested at 100 μM in two biologically independent repeats. All other samples were tested in duplicates in at least three biologically independent repeats. Luminescence was measured with a Spark 10 M luminometer (Tecan Group AG, Mannedorf, Switzerland), firefly luciferase data were divided by Renilla luciferase data and multiplied by 1000 to obtain relative light units (RLU). Fold activation was obtained by dividing the mean RLU of a test compound at a respective concentration by the mean RLU of untreated control. Dose‐response curves were fitted with the equation “[Agonist]/[Inhibitor] vs. response (three parameters)” in GraphPad Prism (version 7.00, GraphPad Software, La Jolla, CA, USA).

[2] = tested on: NOR‐1; details: cited from earlier work
[3] = biological target: T2, Gal4‐VP16 (Saccharomyces cerevisiae, UniProt P04386); experiment: Gal4‐VP16 control reporter gene assay in HEK293T cells; format: cell-based; details: 100 μM
T2 construct: host or cells: HEK293T
T2 sequence (P04386 1-147, added parts left off): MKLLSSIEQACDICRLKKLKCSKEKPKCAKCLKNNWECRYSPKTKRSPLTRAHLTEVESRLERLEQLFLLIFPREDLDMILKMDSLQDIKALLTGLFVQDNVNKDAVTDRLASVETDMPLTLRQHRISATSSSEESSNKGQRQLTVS
Source text: To rapidly probe druggability of NOR‐1 and identify potential ligand scaffolds, we have established a robust reporter gene assay to monitor NOR‐1 activity and screened a medium size fragment library for NOR‐1 modulation. The screening assay was based on the Gal4 hybrid system[13] and employed a chimeric receptor composed of the human NOR‐1 LBD and the Gal4 DNA binding domain from yeast. Firefly luciferase under the control of five tandem repeats of the Gal4 response element served as reporter gene and constitutively expressed renilla luciferase was used for normalization and toxicity monitoring. Control experiments were conducted with the ligand‐independent transcriptional inducer Gal4‐VP16[14, 15] (replacing Gal4‐NOR‐1) to exclude non‐specific effects. The commercially available fragment screening library (core set of the Prestwick drug fragments library) comprised 480 compounds with favorable fragment properties (Figure 1a) and offered high structural diversity as illustrated by low average pairwise Jaccard‐Tanimoto similarity computed on Morgan fingerprints[16] (median 0.13; Figure 1b) and by a total of 77 unique Murcko scaffolds.[17] […]
Hybrid reporter gene assays. […] Luminescence was measured with a Spark 10 M luminometer (Tecan Group AG, Mannedorf, Switzerland), firefly luciferase data were divided by Renilla luciferase data and multiplied by 1000 to obtain relative light units (RLU). […]

[4] = tested on: MYC mRNA expression in HeLa cells; format: cell-based; details: 16 h, 1 at 100 and 300 μM, 19 at 10 and 30 μM, GAPDH as reference gene, n=4
Source text: The following primers were used: GAPDH: fw: [NT].

[5] = biological target: T3, interaction of NOR‐1 with NCoR1 (Homo sapiens, UniProt Q92570); experiment: Reporter gene assay for NOR‐1 interaction with NCoR1 in HEK293T cells; format: cell-based; details: n=3, read-out: IC50, antagonism of NOR‐1 interaction with NCoR1
T3 construct: coding for the hinge region and LBD of the canonical isoform of NOR‐1; expressed in transfected cells; host or cells: HEK293T
T3 sequence (Q92570 394-623 limits assumed): T1 sequence (Q92570 394-623 limits assumed)
Method: (§1) Reporter gene assays for NOR‐1 interactions with NCoR1 and SMRT. The interaction of NOR‐1 with NCoR1 and SMRT was studied in reporter gene assays in HEK293T cells using pFR‐Luc, pRL‐SV40 and pFA‐CMV‐hNOR‐1‐LBD in combination with either pFTI‐CMV‐NCoR1 or pFTI‐CMV‐SMRT, which code for fusion proteins composed of the transcriptional inducer VP16 and fragments of the nuclear receptor co‐regulators NCoR1 or SMRT comprising one interaction motif.[29] […] After 24 h, the medium was changed to Opti‐MEM without supplements and the cells were transiently transfected with above‐described plasmids using Lipofectamine LTX reagent (Invitrogen). […] After 16 h incubation, cells were assayed for luciferase activity using the Dual‐Glo Luciferase Assay System (Promega) and luminescence was measured with a Spark 10 M luminometer (Tecan Group Ltd). Each sample was tested in duplicates in three independent experiments. Firefly luciferase data were divided by renilla luciferase data to obtain relative light units (RLU) and RLU of each test sample were normalized to the negative control (0.1 % DMSO).

[6] = biological target: T4, interaction of NOR‐1 with SMRT (Homo sapiens, UniProt Q92570); experiment: Reporter gene assay for NOR‐1 interaction with SMRT in HEK293T cells; format: cell-based; details: n=3, read-out: IC50, antagonism of NOR‐1 interaction with SMRT
T4 construct: coding for the hinge region and LBD of the canonical isoform of NOR‐1; expressed in transfected cells; host or cells: HEK293T
T4 sequence (Q92570 394-623 limits assumed): T1 sequence (Q92570 394-623 limits assumed)
Method: as §1

Clc1ccc(N2CCNCC2)cc1 [compound 6, 4‐chlorophenylpiperazine]
type of NOR‐1 modulation [1]: weak agonists
NOR‐1 activity ([1]; n=4): 120±6 % NOR‐1 activity (100 μM)

COC(=O)c1c[nH]c2ccc(Cl)cc12 [compound 14]
IC50 ([1]; Gal4‐NOR‐1, HEK293T cells, n=4): 14 ± 2 µM
remaining NOR‐1 activity ([1]; n=4): 12±4%
improvement in inverse NOR‐1 agonist potency ([1]; versus lead 1): 3.5 fold

COC(=O)c1c[nH]c2c(Cl)cccc12 [compound 16]
IC50 ([1]; Gal4‐NOR‐1, HEK293T cells, n=4): > 100 µM

COC(=O)c1c(Cl)[nH]c2ccccc12 [compound 12]
IC50 ([1]; Gal4‐NOR‐1, HEK293T cells, n=4): > 100 µM

COC(=O)c1cn(-c2ccccc2)c2ccccc12 [compound 11]
activity on NOR‐1 [1]: inactive

CN1CCN(c2ccc(N)cc2)CC1 [compound 10]
activity on NOR‐1 [1]: inactive (100 μM)

CCCCC[C@H](O)/C=C/[C@H]1C=CC(=O)[C@@H]1C/C=C\CCCC(=O)O [prostaglandin A2]
effect on NOR‐1 activity ([2]; through direct interaction with its LBD): weakly activates NOR‐1

COc1ccc(N2CCNCC2)cc1 [compound 9, 4‐Methoxyphenylpiperazine]
activity on NOR‐1 [1]: inactive (100 μM)

COC(=O)c1c[nH]c2cc(Cl)ccc12 [compound 15]
IC50 ([1]; Gal4‐NOR‐1, HEK293T cells, n=4): > 100 µM

COC(=O)c1c[nH]c2ccccc12 [compound 1]
type of NOR‐1 modulation [1]: inverse agonist
IC50 ([1]; Gal4‐NOR‐1, HEK293T cells, n=4): 47 ± 8 µM
remaining NOR‐1 activity ([1]; n=4): 47±6%
effect on Gal4‐VP16 induced reporter activity [3]: no suppression
effect on MYC expression [4]: induced MYC expression

COC(=O)c1c[nH]c2ccc(OC)cc12 [compound 18]
IC50 ([1]; Gal4‐NOR‐1, HEK293T cells, n=4): 43 ± 5 µM
remaining NOR‐1 activity ([1]; n=4): 13±4%

Oc1ccc(N2CCNCC2)cc1 [compound 4]
activity on NOR‐1 [1]: inactive (100 μM)

O=C(O)CCc1ccc(Cl)cc1 [compound 3]
type of NOR‐1 modulation [1]: agonist
EC50 ([1]; Gal4‐NOR‐1, HEK293T cells, n=4, read-out: EC50 (NOR‐1), agonism): 44 ± 6 µM
max. activation of NOR‐1 ([1]; Gal4‐NOR‐1, n=4): 132±4%
effect of added inverse agonist 1 on the EC50 value of 3 (competition experiment) ([1]; fixed concentration of 1 (100 μM), n=3): did not affect the EC50 value

CC(=O)N1CCN(c2ccccc2)CC1 [compound 5]
NOR‐1 activity ([1]; n=4): 93±1 % NOR‐1 activity (100 μM)

CC(=O)N1CCN(c2ccc(O)cc2)CC1 [compound 2]
type of NOR‐1 modulation [1]: inverse agonist
IC50 ([1]; Gal4‐NOR‐1, HEK293T cells, n=4): 73 µM
remaining NOR‐1 activity ([1]; n=4): 64±7%
effect on Gal4‐VP16 induced reporter activity [3]: no suppression

COC(=O)c1c[nH]c2ccc(-c3ccccc3)cc12 [compound 20]
IC50 ([1]; Gal4‐NOR‐1, HEK293T cells, n=4): 4 ± 2 µM
remaining NOR‐1 activity ([1]; n=4): 49±5%

COC(=O)c1c[nH]c2cccc(Cl)c12 [compound 13]
IC50 ([1]; Gal4‐NOR‐1, HEK293T cells, n=4): > 100 µM

Sc1ncnc2nc[nH]c12 [6‐mercaptopurine]
binding to the NOR‐1 ligand binding domain (LBD) [2]: does not bind
effect on NOR‐1 activity ([2]; requires the N‐terminal AF‐1 of NOR‐1): enhanced NOR‐1 activity

COC(=O)c1c[nH]c2ccc(Br)cc12 [compound 19, Methyl 5‐bromoindole‐3‐carboxylate]
IC50 ([1]; Gal4‐NOR‐1, HEK293T cells, n=4): 8 ± 1 µM
remaining NOR‐1 activity ([1]; n=4): 7±3%
IC50 [5]: 12 ± 3 µM
IC50 [6]: 9 ± 2 µM
effect on MYC expression [4]: induced MYC expression

COC(=O)c1c[nH]c2ccc(C)cc12 [compound 17]
IC50 ([1]; Gal4‐NOR‐1, HEK293T cells, n=4): 35 ± 8 µM
remaining NOR‐1 activity ([1]; n=4): 2±7%

Nc1ccc(N2CCNCC2)cc1 [compound 8, 4‐aminophenylpiperazine]
type of NOR‐1 modulation [1]: weak agonists
NOR‐1 activity ([1]; n=4): 124±2 % NOR‐1 activity (100 μM)

Source: paper PMC9542104, “Druggability Evaluation of the Neuron Derived Orphan Receptor (NOR‐1) Reveals Inverse NOR‐1 Agonists” (Chemmedchem, 2022)
